In article PMC4700268 (Frontiers in Pharmacology, 2016):
Where two headings read alike, the source gives them in different places.

T1: hCNT3 (Homo sapiens, UniProt Q9HAS3)
T1 sequence (Q9HAS3 1-691): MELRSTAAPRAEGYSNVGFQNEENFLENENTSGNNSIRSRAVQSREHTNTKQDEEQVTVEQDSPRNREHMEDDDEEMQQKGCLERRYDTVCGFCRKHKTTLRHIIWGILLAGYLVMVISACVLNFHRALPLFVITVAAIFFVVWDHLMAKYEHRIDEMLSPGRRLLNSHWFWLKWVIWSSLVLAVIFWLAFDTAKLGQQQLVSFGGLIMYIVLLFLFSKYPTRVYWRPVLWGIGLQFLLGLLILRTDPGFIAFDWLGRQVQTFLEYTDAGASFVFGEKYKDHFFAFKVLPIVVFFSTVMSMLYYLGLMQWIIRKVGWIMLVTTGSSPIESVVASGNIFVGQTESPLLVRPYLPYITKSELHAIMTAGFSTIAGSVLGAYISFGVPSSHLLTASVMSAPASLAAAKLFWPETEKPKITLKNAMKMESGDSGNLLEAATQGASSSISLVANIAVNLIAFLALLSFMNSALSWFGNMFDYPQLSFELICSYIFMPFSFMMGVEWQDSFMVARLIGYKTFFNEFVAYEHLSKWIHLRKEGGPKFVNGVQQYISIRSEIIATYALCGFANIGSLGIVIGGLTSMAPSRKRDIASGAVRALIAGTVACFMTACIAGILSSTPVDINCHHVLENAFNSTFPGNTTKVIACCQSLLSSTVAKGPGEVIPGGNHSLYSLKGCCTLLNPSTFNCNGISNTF

T2: hCNT2 (Homo sapiens, UniProt O43868)
T2 sequence (O43868 1-658): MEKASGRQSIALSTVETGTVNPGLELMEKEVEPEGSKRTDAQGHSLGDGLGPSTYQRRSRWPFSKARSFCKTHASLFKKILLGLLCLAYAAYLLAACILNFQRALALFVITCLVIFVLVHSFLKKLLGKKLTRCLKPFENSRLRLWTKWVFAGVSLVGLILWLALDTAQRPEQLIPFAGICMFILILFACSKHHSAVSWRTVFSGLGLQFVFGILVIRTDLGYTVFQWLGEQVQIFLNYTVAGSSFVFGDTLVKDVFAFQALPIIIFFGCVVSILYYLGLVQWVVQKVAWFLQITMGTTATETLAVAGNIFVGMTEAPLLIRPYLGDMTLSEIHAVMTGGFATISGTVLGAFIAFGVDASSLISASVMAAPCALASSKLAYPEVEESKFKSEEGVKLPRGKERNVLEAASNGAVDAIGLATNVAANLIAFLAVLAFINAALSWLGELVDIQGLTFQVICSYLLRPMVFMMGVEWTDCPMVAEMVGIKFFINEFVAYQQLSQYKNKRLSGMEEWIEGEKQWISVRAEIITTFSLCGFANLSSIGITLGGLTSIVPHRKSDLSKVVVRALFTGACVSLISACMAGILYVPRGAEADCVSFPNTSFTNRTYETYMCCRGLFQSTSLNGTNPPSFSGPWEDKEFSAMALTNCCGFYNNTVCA

T3: hOAT1 (Homo sapiens, UniProt Q4U2R8)
T3 sequence (Q4U2R8 1-563): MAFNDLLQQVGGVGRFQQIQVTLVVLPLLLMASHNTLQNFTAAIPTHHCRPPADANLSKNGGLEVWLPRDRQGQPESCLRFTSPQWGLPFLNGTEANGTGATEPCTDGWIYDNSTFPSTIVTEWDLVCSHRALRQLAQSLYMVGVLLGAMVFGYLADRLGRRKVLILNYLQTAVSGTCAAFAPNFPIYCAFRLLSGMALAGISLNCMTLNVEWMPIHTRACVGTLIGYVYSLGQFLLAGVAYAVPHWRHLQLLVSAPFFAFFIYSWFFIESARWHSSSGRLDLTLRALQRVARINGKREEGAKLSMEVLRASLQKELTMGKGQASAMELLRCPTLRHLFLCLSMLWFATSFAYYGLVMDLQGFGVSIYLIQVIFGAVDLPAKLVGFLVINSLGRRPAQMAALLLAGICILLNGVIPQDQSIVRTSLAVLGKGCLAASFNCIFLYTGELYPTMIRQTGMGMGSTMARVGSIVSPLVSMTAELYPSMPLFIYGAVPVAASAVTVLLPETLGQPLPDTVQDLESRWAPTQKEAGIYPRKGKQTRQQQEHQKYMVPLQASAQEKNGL

B1: hCNT2 (Homo sapiens) (protein)
chain: T2 sequence (O43868 1-658)
B2: hCNT3 (Homo sapiens) (protein)
chain: T1 sequence (Q9HAS3 1-691)
B3: hOAT1 (Homo sapiens) (protein)
chain: T3 sequence (Q4U2R8 1-563)
notes: host or cells: HeLa cells, transient transfection

How the values were obtained:
[1] = ref Cundy, 1999; Kearney et al., 2005; Delahunty et al., 2006; cited from earlier work
hCNT3 = molecular target: T1, hCNT3; test: Inhibition of [3H]uridine uptake in hCNT3 transfected MDCK II cells; type: in vitro ADME; set-up: host or cells: MDCK II cells, transient transfection; conditions: 1 μM [3H]uridine, 0–1000 μM, 2 min, MDCK II
Description: (§1) Inhibitory transport assays were carried out in 24-well plates as described previously ([Mandikova et al., 2013]). Transport assays in HeLa cells transiently transfected with the hOAT1 expression construct were performed 48 h after transfection. Transport assays in MDCK II cells transiently transfected with hOCT2, hCNT2 or hCNT3 were performed 24 h after transfection. The cultivation medium was removed and the cells were washed with transport solution and preincubated for 10 min at 37°C. The standard radiolabeled substrate or tested radioactive antiviral substance dissolved in transport solution was added to the cells and incubated for 2 min. [^3H]PAH (1 μM) was used as a prototypical substrate for OATs, [^3H]MPP^+ (1 μM) for OCTs and [^3H]uridine (1 μM) for CNTs. […] After the designated time period, the incubation was stopped by washing the cells twice with ice-cold solution containing 137 mM NaCl and 10 mM HEPES, pH 7.4. The cells were disintegrated with 0.1 mL of Triton X 0.5% in 100 mM NaOH for 1 h.
(§2) IC50 values were calculated using non-linear regression analysis using GraphPad Prism software (version 6).

[2] = system: HeLa cells transiently transfected with hOAT1
Description: (§3) The Hela cells were plated in a 96-well plate and transfected with hOAT1 as described above. […] The controls were prepared simultaneously. After 24 h of incubation, the reagent from the kit CellTiter 96 AQueous One Solution Cell Proliferation Assay (CellTiter 96, PROMEGA, USA) was added. After 1.5 h of incubation at 37°C the absorbance was recorded at 490 nm.

hCNT2 = molecular target: T2, hCNT2; test: Inhibition of [3H]uridine uptake in hCNT2 transfected MDCK II cells; type: in vitro ADME; set-up: host or cells: MDCK II cells, transient transfection; conditions: 1 μM [3H]uridine, 0–1000 μM, 2 min, MDCK II
Description: as §1, §2

[3] = system: HeLa cells transiently transfected with hOAT1; test: MTS cell viability assay in hOAT1 transfected HeLa cells; conditions: 24 h, hOAT1 vs empty vector transfected HeLa cells
Description: as §3

hOAT1 = molecular target: T3, hOAT1; set-up: method as in Ho et al. (2000); conditions: ref Ho et al. (2000); read-out: Km in CHO cells stably expressing hOAT1; cited from earlier work
not read [4] = substrate: C=C1[C@H](CO)[C@@H](O)C[C@@H]1n1cnc2c(=O)[nH]c(N)nc21; test: not read; conditions: 5 min, 37°C
not read [5] = substrate: C=C1[C@H](CO)[C@@H](O)C[C@@H]1n1cnc2c(=O)[nH]c(N)nc21; test: not read; type: in vitro ADME, human; conditions: other: HeLa cells transiently transfected with hOAT1, 5 min, 37°C

| Molecule | Therapeutic plasma levels achieved in humans [1] [µM] | Inhibitory effect on hCNT3 (hCNT3) | Inhibitory effect on hCNT2 (hCNT2) | Effect of hOAT1 expression on cytotoxicity (cell viability) [3] | further results |
| --- | --- | --- | --- | --- | --- |
| C[C@H](Cn1cnc2c(N)ncnc21)OCP(=O)(O)O [tenofovir] | 0.5 | not observed | not observed |  | Effect of hOAT1 expression on cytotoxicity (cell viability) [2]: significantly enhanced the cytotoxic effect |
| Nc1ncnc2c1ncn2CCOCP(=O)(O)O [adefovir] | 0.1 | not observed | not observed | significantly enhanced the cytotoxic effect | Km (hOAT1): 23.8 µM |
| Nc1ccn(C[C@@H](CO)OCP(=O)(O)O)c(=O)n1 [cidofovir] | 70 | not observed | not observed | significantly enhanced the cytotoxic effect |  |
| B1 |  |  |  |  | Km (not read [4]; other: hCNT2 transfected cells): 1522.00 µM |
| B2 |  |  |  |  | Km (not read [4]; other: hCNT3 transfected cells): 99.02 µM |
| B3 |  |  |  |  | Km (not read [5]): 316.5 µM |
